Reference: patent US9403811B2, “Crystalline forms of azilsartan medoxomil potassium and preparation and uses thereof” (SUNSHINE LAKE PHARMA CO., LTD., priority 2012, dated 2016)

Assays:
Solubility test = format: physicochemical; details: for Solubility: THF (volume of solvent in which the solid dissolved): 0.50 g solid added to THF at room temperature; for Solubility: THF (volume of solvent in which the solid dissolved) / Solubility: Acetone (volume of solvent in which the solid dissolved) / Solubility: Ethanol (volume of solvent in which the solid dissolved) / Solubility: Ethyl acetate (volume of solvent in which the solid dissolved) / Solubility: Methanol (volume of solvent in which the solid dissolved): shaking 30 seconds every 5 minutes, observed with eyes; for Solubility: Acetone (volume of solvent in which the solid dissolved): 0.50 g solid added to acetone at room temperature; for Solubility: Ethanol (volume of solvent in which the solid dissolved): 0.50 g solid added to ethanol at room temperature; for Solubility: Ethyl acetate (volume of solvent in which the solid dissolved): 0.50 g solid added to ethyl acetate at room temperature; for Solubility: Methanol (volume of solvent in which the solid dissolved): 0.50 g solid added to methanol at room temperature; for Solubility: Result: 0.50 g solid in the listed solvent volumes, room temperature, dissolved = no solid detected by human eyes
Experimental: The crystalline form C, D, F, H, J and L of azilsartan medoxomil potassium (0.50 g) was added to the solvent at room temperature. […] The solid was deemed as dissolved when no solid was detected in the mixture by human eyes.
The solubility data of crystalline forms C, D, F, H, J and L of azilsartan medoxomil potassium are as shown below.

Stability test = format: physicochemical
Experimental: The stability test of the crystalline form C was conducted under the following conditions:
Storage condition 1: stored under conditions of 40° C./RH75% in a sealed state for 3 and 6 months. […] During the whole test period, no change in total amount of impurities was recognized as compared with that before the beginning of the test.
Storage condition 2: stored under conditions of 40° C./RH75% in an unsealed state for 1 and 3 months.

SMILES	Solubility: THF (volume of solvent in which the solid dissolved) (Solubility test)	Solubility: Acetone (volume of solvent in which the solid dissolved) (Solubility test)	Solubility: Ethanol (volume of solvent in which the solid dissolved) (Solubility test)	Solubility: Ethyl acetate (volume of solvent in which the solid dissolved) (Solubility test)	Solubility: Methanol (volume of solvent in which the solid dissolved) (Solubility test)	Solubility: Result (Solubility test)	conversion of the crystalline form into other polymorphs (Stability test; storage condition 1: 40° C./RH75%, sealed state, after six months)	change in total amount of impurities compared with before the beginning of the test (Stability test; storage condition 1: 40° C./RH75%, sealed state, whole test period (3 and 6 months))	total amount of impurities compared with before the beginning of the test (Stability test; storage condition 2: 40° C./RH75%, unsealed state, 1 and 3 months)	conversion of the crystalline form into other polymorphs (Stability test; storage condition 2: 40° C./RH75%, unsealed state, after three months)
CCOc1nc2cccc(C(=O)OCc3oc(=O)oc3C)c2n1Cc1ccc(-c2ccccc2-c2noc(=O)[n-]2)cc1.[K+] [Form H, azilsartan medoxomil potassium]	14 mL	10 mL	8 mL	13 mL	6 mL	dissolved	–	–	–	–
CCOc1nc2cccc(C(=O)OCc3oc(=O)oc3C)c2n1Cc1ccc(-c2ccccc2-c2noc(=O)[n-]2)cc1.[K+] [Form C, azilsartan medoxomil potassium]	13 mL	8 mL	6 mL	10 mL	5 mL	dissolved	could not be confirmed	no change	increased	could not be confirmed
CCOc1nc2cccc(C(=O)OCc3oc(=O)oc3C)c2n1Cc1ccc(-c2ccccc2-c2noc(=O)[n-]2)cc1.[K+] [Form J, azilsartan medoxomil potassium]	12 mL	8 mL	5.5 ml^	11 mL	4 mL	dissolved	–	–	–	–
CCOc1nc2cccc(C(=O)OCc3oc(=O)oc3C)c2n1Cc1ccc(-c2ccccc2-c2noc(=O)[n-]2)cc1.[K+] [Form F, azilsartan medoxomil potassium]	15 mL	12 mL	6 mL	16 mL	4.5 ml^	dissolved	–	–	–	–
CCOc1nc2cccc(C(=O)OCc3oc(=O)oc3C)c2n1Cc1ccc(-c2ccccc2-c2noc(=O)[n-]2)cc1.[K+] [Form L, azilsartan medoxomil potassium]	17 mL	11 mL	6 mL	14 mL	5 mL	dissolved	–	–	–	–
CCOc1nc2cccc(C(=O)OCc3oc(=O)oc3C)c2n1Cc1ccc(-c2ccccc2-c2noc(=O)[n-]2)cc1.[K+] [Form D, azilsartan medoxomil potassium]	16.5 ml^	9 mL	5 mL	12 mL	4 mL	dissolved	–	–	–	–
